Tested on: mitochondrial respiration
Test: High-resolution respirometry of isolated muscle mitochondria from adult zebrafish after menadione-induced acute oxidative stress
Assay type: in vivo
Conditions: 3 uM menadione 2 h then 2 h treatment, low doses: NAC 100 uM + glycine 100 uM (GlyNAC) or NR 50 uM, single treatments
Experimental: FIG. 1. Effect of the combination of NAC, glycine and NR on the mitochondrial respiration. High-resolution respirometry of isolated mitochondria from muscle of adult zebrafish (N=5-6/condition). Acute oxidative stress was induced with a 2 h-treatment with menadione (Men). Rescue of the respiration was assessed with a treatment of 2 h with low doses of […] 100 uM, glycine 100 uM) and low dose of NR (50 uM). Data of respiration measurements are shown in 1A. Theoretical additive effect (Δ[…]) has been calculated as the sum of the mean of […] and NR and have been compared to the synergistic effect (Δ[…]). […] After BCA quantification of protein concentration, 150 ug of crude extract were used for high-resolution respirometry quantification. […] Respiration of isolated mitochondria was determined using substrate-uncoupler-inhibitor titration (SUIT) protocols (Pesta and […], 2012) with modifications. […] CI respiration was calculated as the difference between total respiration (CI+CII) and the addition of CI inhibitor rotenone (0.5 uM); CII respiration was calculated as the difference between inhibited CI respiration and the addition of CII inhibitor malonic acid (5 mM). Total respiration (CI+CII, Tot resp) was assessed as the difference of the respiration in presence of all substrates and the total inhibition of CI and CII. All numerical data are expressed as mean±SEM and reported as histograms. […]

SMILES: NC(=O)c1ccc[n+]([C@@H]2O[C@H](CO)[C@@H](O)[C@H]2O)c1 [NR, nicotinamide riboside]
- effect on mitochondrial respiration when used alone: do not show any significant effect when used alone

Source: patent US12496285B2, “Compositions and methods using at least one glycine or derivative thereof, at least one N-acetylcysteine or derivative thereof, and at least one nicotinamide riboside or NAD+ precursor” (SOCIETE DES PRODUITS NESTLE S.A., priority 2018, dated 2025)
